From PubChem BioAssay (NCI)
Several values for one entry are separate records, joined by “and”; a condition that tells them apart may be missing. Equal values may be shown once.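 Test compounds were applied to cells in 96-well plates for 48 hours at 5 doses. The concentration for 50% growth inhibition is given as GI50. TGI marks complete inhibition of growth.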

Key:
Assay in all cases: DTP human tumour cell line panel, 48 h
[1] = tested on: CCRF-CEM leukemia
[2] = tested on: DU-145 prostate
[3] = tested on: IGROV1 ovarian
[4] = tested on: MCF7 breast
[5] = tested on: MDA-MB-231 breast
[6] = tested on: OVCAR-3 ovarian
[7] = tested on: SF-268 CNS
[8] = tested on: SF-295 CNS
[9] = tested on: SK-MEL-2 melanoma
[10] = tested on: SNB-19 CNS

Compound	GI50 [1]	TGI [1]	GI50 [2]	TGI [2]	GI50 [3]	TGI [3]	GI50 [4]	TGI [4]	GI50 [5]	TGI [5]	GI50 [6]	TGI [6]	GI50 [7]	TGI [7]	GI50 [8]	TGI [8]	GI50 [9]	TGI [9]	GI50 [10]	TGI [10]
Cc1ccc2[nH]c(C(=O)NN3C(=O)C(C)SC34CCCC(C)C4)c(-c3ccccc3)c2c1 (stereo not given)	74.1 µM	> 100 µM	> 100 µM	> 100 µM	59.1 µM	> 100 µM	32.7 µM	> 100 µM	> 100 µM	> 100 µM	97.3 µM	> 100 µM	64.8 µM	> 100 µM	68.5 µM	> 100 µM	> 100 µM	> 100 µM	> 100 µM	> 100 µM
Fc1ccc(-c2nn3ncccc3c2-c2ccnc(Nc3ccc4c(c3)OCCO4)n2)cc1	6.22 µM	> 25 µM	6.26 µM	> 25 µM	0.595 µM	> 11.5 µM	2.79 µM	> 25 µM	1.22 µM	6.01 µM	2.12 µM	> 16.2 µM	7.36 µM	> 25 µM	6.35 µM	18.6 µM	4.45 µM	9.71 µM	19.4 µM	> 25 µM
COc1cc2c(c(OC)c1OC)-c1c(cc3c(c1OC)OCO3)C1OC2C(C)C1C (stereo not given) (tested in a mixture with another compound)	–	> 100 µM	–	> 100 µM	–	> 100 µM	–	> 100 µM	–	> 100 µM	–	> 100 µM	–	> 100 µM	–	> 100 µM	–	> 100 µM	–	> 100 µM
Cc1ccc2c3c(c(=O)[nH]c2c1)C1(C(C#N)=C(N)O3)c2cc(Br)ccc2-c2ccc(Br)cc21	3.12 µM	15 µM	2.98 µM	12.1 µM	1.6 µM	3.75 µM	2.1 µM	5.76 µM	1.7 µM	3.6 µM	2.11 µM	4.76 µM	2.03 µM	5.08 µM	1.82 µM	3.71 µM	2.52 µM	6.72 µM	2.12 µM	6.01 µM
O=C1/C(=C/c2ccc(O)cc2)CSc2ccc(Cl)cc21	0.58 µM	> 100 µM	12.4 µM	27.2 µM	7.58 µM	51 µM	0.651 µM	11 µM	17.8 µM	44.3 µM	5.69 µM	19.4 µM	15.4 µM	41.3 µM	18.2 µM	40.1 µM	19.1 µM	51.8 µM	14.1 µM	27.4 µM
CC(C)(C)c1cc(NC(=O)Cc2ccc(-c3cnc4cc(-c5cnn(CCN6CCOCC6)c5)ccc4n3)cc2)no1	0.163 µM and 0.388 µM and 0.107 µM	22.8 µM and > 100 µM and > 3 µM	0.432 µM and 0.494 µM and 0.0757 µM	50 µM and > 100 µM and > 3 µM	0.106 µM and 0.104 µM	0.65 µM and 1.11 µM	0.301 µM and 0.806 µM and 0.194 µM	50 µM and > 100 µM and > 3 µM	0.622 µM and 0.573 µM	50 µM and > 100 µM and > 2.85 µM	0.482 µM and 0.675 µM and 0.105 µM	50 µM and > 100 µM and > 3 µM	0.413 µM and 0.468 µM and 0.0781 µM	50 µM and > 100 µM and > 3 µM	0.436 µM and 0.461 µM and 0.0839 µM	50 µM and > 100 µM and > 3 µM	0.347 µM and 0.42 µM and 0.0569 µM	50 µM and > 100 µM and > 2.53 µM	2.47 µM and 2.26 µM and 0.279 µM	50 µM and > 100 µM and > 3 µM
CC(C)(C)c1ccc(O)c(CN(Cc2cc(C(C)(C)C)ccc2O)c2ccccc2)c1	–	> 100 µM	–	38.3 µM	–	47.7 µM	–	38.9 µM	–	31.7 µM	–	34.1 µM	–	38.3 µM	–	37.4 µM	–	33.3 µM	–	31.5 µM
Cn1cnc([N+](=O)[O-])c1[Se]c1nc(N)nc2c1ncn2C1OC(CO)C(O)C1O (stereo not given)	–	> 100 µM	–	> 100 µM	–	> 100 µM	–	> 100 µM	–	> 100 µM	–	> 100 µM	–	> 100 µM	–	> 100 µM	–	> 100 µM	–	> 100 µM
COC(=O)c1c(C)[nH]c(/C=C2\N=C(c3ccc[nH]3)C=C2OC)c1C	0.0501 µM	> 100 µM	0.426 µM	> 100 µM	0.147 µM	1.62 µM	0.413 µM	3.12 µM	0.169 µM	1.27 µM	0.152 µM	2.09 µM	0.26 µM	> 100 µM	0.983 µM	3.44 µM	0.328 µM	1.27 µM	1.87 µM	> 100 µM
CCCCN1CSC(=S)N(Cc2ccccc2)C1	–	32.9 µM	–	> 100 µM	–	> 100 µM	–	> 100 µM	–	> 100 µM	–	> 69.8 µM	–	> 100 µM	–	> 100 µM	–	> 100 µM	–	> 100 µM
CON(C)C(=O)N1N=C(c2cc(F)ccc2F)SC1(CCCN)c1ccccc1 (stereo not given)	0.0115 µM and < 0.01 µM	22.4 µM and 21.6 µM	0.0336 µM and < 0.01 µM	11.8 µM and 11.3 µM	6.28 µM and 4.85 µM	32.2 µM and 27.5 µM	< 0.01 µM	11.6 µM and 11.5 µM	< 0.01 µM	0.039 µM	0.0298 µM and < 0.01 µM	12.4 µM and 12.2 µM	0.0217 µM and < 0.01 µM	17.3 µM and 16 µM	0.0191 µM and < 0.01 µM	1.1 µM	< 0.01 µM	0.561 µM	0.109 µM and < 0.0132 µM	23.2 µM and 23.7 µM
CN1C(=O)c2ccccc2NC(=O)C12O[C@@H]2c1cccc(O)c1 (stereo not given in full)	–	> 100 µM	–	> 100 µM	–	> 100 µM	–	> 100 µM	–	> 100 µM	–	> 100 µM	–	> 100 µM	–	> 100 µM	–	> 100 µM	–	> 100 µM
N#Cc1cccc(NC(=O)c2cc(-c3ccc(F)cc3F)ccc2O)c1	3.07 µM	47.7 µM	3.26 µM	> 100 µM	2.98 µM	68.6 µM	2.15 µM	9.72 µM	2.01 µM	5.23 µM	2.17 µM	11.7 µM	3.11 µM	> 100 µM	2.16 µM	5.19 µM	1.76 µM	5.49 µM	2.63 µM	18.4 µM
C/C=C(\C)CC/C=C/CO[Si](C)(C)C(C)(C)C	–	49.6 µM	–	> 100 µM	–	> 100 µM	–	> 100 µM	–	> 100 µM	–	> 100 µM	–	> 100 µM	–	> 100 µM	–	> 100 µM	–	> 100 µM
